The record followed here is patent US20250170107A1, “IMIDAZOPYRIDINE INHIBITORS OF TYROSINE KINASE” (BridGene Biosciences. Inc., priority 2022, published 2025).

Some results are limits rather than exact numbers.

One experiment has as its target T1, KIT (Homo sapiens, UniProt P10721).
T1 construct: purchased BPS 40250
Briefly: Caliper mobility shift kinase inhibition assay, recombinant KIT. In kind it is biochemical. The conditions noted are these: recombinant KIT 0.9 nM, ATP 400 μM, incubation 17 hr (Table 2).

In the next experiment the target is T2, FLT3 (Homo sapiens, UniProt P36888).
T2 construct: purchased ThermoFisher PV3182
T2 sequence (P36888 27-993): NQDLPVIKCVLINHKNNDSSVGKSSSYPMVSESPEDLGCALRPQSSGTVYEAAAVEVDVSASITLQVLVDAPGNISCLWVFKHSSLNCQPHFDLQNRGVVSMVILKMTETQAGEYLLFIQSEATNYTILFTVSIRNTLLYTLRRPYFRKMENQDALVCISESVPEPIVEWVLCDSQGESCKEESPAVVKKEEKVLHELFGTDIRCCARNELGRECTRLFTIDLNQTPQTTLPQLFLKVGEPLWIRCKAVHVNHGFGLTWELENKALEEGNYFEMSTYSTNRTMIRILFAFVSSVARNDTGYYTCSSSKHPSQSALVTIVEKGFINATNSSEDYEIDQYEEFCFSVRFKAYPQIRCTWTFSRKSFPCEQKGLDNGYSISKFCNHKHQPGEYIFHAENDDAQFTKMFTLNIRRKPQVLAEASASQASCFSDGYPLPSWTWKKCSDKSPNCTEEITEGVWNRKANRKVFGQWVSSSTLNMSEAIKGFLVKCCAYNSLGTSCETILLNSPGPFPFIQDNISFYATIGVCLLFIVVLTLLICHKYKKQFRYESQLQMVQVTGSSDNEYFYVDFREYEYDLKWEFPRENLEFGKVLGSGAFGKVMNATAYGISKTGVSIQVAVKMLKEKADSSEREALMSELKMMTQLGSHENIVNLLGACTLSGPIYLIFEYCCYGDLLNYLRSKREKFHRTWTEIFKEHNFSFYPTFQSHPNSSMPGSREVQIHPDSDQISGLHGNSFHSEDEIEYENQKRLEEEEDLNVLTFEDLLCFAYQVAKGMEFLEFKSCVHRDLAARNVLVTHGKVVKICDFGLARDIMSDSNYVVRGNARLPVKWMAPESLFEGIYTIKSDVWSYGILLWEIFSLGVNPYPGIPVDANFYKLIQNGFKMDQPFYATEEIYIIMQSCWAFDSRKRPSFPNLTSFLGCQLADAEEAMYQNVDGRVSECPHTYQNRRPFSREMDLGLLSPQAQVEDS
Put plainly: Caliper mobility shift kinase inhibition assay, recombinant FLT3. The conditions noted are these: recombinant FLT-3 0.1 nM, ATP 95 μM, incubation 3 hr, room temperature. In kind it is biochemical. The procedure: Compounds' inhibition of recombinant kinases (FLT3, KIT) was measured using Caliper mobility shift assay, which is based on the difference in capillary electrophoresis mobility of a fluorescent-tagged peptide as a result of a phosphorylation by the kinase under study. Reactions were started by the addition of various concentrations of a compound (originally in DMSO solution) to a kinase solution in assay buffer followed by addition of a mixture of ATP and a fluorescent-tagged peptide substrate in assay buffer. Concentrations of the enzyme, ATP and thepeptide were pre-optimized so that 15% substrate conversion to ensure initial velocity measurements. After incubation for 3 hours at room temperature, the kinase reaction was quenched by the addition of a concentrated EDTA solution before analysis on a LabChip EZ Reader II to yield percentage inhibition by comparing to the DMSO control. Table 2 below summarizes the assay conditions for the characterization of the kinase inhibition properties of the disclosed compounds.

The subject of another experiment is MV4-11. Put plainly: Cell viability assay (CellTiter-Glo), FLT3 cell-based assay. As to conditions: MV4-11 cells, 72 hr at 37° C., 0.1% DMSO. The procedure: Cell viability assay was performed based on the following brief procedures. Cells were plated at the density of 5K/well with volume of 180 μL in 96-well white plate and clear bottom plates. 20 μL of veh. or compound was added at proper concentration to the well. The final volume is 200 μL, with final conc. of DMSO=0.1%, 11 points, triplicates. The cells were then treated at 37° C. in the TC incubator for 72 hr. Equal volume (200 μL) of CellTiter-Glo reagent (Promega) was added to the well and protect from light at room temperature for 15 min. The chemiluminescence was measured with EnSight (Perkin Elmer). GraphPad Prism non-linear regression, Log[inhibitor] response with four parameters were used to calculate GI50.
Background: ATP-based viability assays read luminescence as a measure of living cells.

T1 sequence (P10721 26-976): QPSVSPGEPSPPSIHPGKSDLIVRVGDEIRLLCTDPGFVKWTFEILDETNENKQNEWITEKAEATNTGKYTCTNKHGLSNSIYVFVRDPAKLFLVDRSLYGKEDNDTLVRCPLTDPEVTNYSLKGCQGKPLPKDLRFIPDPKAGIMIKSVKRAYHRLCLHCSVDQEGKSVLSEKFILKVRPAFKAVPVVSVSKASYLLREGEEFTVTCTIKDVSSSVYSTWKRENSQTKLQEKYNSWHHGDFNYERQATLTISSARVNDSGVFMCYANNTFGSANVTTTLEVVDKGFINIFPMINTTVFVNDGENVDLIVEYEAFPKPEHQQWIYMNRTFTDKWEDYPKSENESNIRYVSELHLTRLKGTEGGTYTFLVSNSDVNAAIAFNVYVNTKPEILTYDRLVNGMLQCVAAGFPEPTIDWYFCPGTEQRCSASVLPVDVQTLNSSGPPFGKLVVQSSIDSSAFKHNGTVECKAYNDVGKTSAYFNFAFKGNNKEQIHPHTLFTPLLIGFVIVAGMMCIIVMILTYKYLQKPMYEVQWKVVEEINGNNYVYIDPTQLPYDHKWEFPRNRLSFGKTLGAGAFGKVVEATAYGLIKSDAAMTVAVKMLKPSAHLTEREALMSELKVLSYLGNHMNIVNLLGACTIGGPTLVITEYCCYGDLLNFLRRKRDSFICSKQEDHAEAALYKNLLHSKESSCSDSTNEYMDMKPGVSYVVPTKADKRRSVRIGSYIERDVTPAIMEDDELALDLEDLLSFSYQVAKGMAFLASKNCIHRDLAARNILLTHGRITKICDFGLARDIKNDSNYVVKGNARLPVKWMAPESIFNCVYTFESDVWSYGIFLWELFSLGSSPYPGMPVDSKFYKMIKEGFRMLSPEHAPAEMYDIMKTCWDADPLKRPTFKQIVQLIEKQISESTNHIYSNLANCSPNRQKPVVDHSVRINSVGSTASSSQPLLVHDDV

A word on the IC50: it is the concentration that inhibits the measured activity by half. What is called GI50 is the concentration giving 50% growth inhibition. Regarding `C/C=C\C(=O)N1CCC[C@H]1C(=O)NCCn1cnc2cnc(Nc3ncc(-c4ccc(F)cc4)s3)cc21` [Example 2, (2S)-1-[(Z)-but-2-enoyl]-N-[2-[6-[[5-(4-fluorophenyl)thiazol-2-yl]amino]imidazo[4,5-c]pyridin-1-yl]ethyl]pyrrolidine-2-carboxamide], the IC50 on KIT and at FLT3 was 1 to 10 nM throughout. The GI50 with MV4-11 (Homo sapiens) was less than 10 nM.

For `CN(C)C/C=C/C(=O)N1CCC[C@H]1C(=O)NCCn1cnc2cnc(Nc3ncc(-c4ccc(F)cc4)s3)cc21` [Example 3, (2S)-1-[(E)-4-(dimethylamino)but-2-enoyl]-N-[2-[6-[[5-(4-fluorophenyl)thiazol-2-yl]amino]imidazo[4,5-c]pyridin-1-yl]ethyl]pyrrolidine-2-carboxamide], the IC50 was 1 to 10 nM at KIT and less than 1 nM on FLT3. Also, the GI50 with MV4-11 (Homo sapiens) lay within 10 to 100 nM.

Turning to `C=CC(=O)N1CCC[C@H]1C(=O)NCCn1cnc2cnc(Nc3ncc(-c4ccncc4F)s3)cc21` [Example 8, (2S)-N-[2-[6-[[5-(3-fluoro-4-pyridyl)thiazol-2-yl]amino]imidazo[4,5-c]pyridin-1-yl]ethyl]-1-prop-2-enoyl-pyrrolidine-2-carboxamide], the IC50 on KIT and at FLT3 was less than 1 nM throughout. In the experiment with MV4-11 (Homo sapiens), this molecule gave a GI50 of less than 10 nM.

As for “(2S,3S)-1-(2-fluoroprop-2-enoyl)-N-[2-[6-[[5-(3-fluoro-2-pyridyl)thiazol-2-yl]amino]imidazo[4,5-c]pyridin-1-yl]ethyl]-3-hydroxy-pyrrolidine-2-carboxamide [Example 25]”, the IC50 lay within 100 to 1000 nM at KIT and 10 to 100 nM on FLT3. The same molecule returned a GI50 with MV4-11 of 10 to 100 nM.

Regarding `C/C=C\C(=O)N1CCC[C@H]1C(=O)NCCn1cnc2cnc(Nc3ncc(-c4ncccc4F)s3)cc21` [Example 11, (2S)-1-[(Z)-but-2-enoyl]-N-[2-[6-[[5-(3-fluoro-2-pyridyl)thiazol-2-yl]amino]imidazo[4,5-c]pyridin-1-yl]ethyl]pyrrolidine-2-carboxamide], the IC50 on KIT lay in the range of 100 to 1000 nM; at FLT3 it was 1 to 10 nM. For the same molecule, the GI50 in the experiment on MV4-11 (Homo sapiens) is 10 to 100 nM.

Regarding `C=CC(=O)N1C[C@@H](O)C[C@H]1C(=O)NCCn1cnc2cnc(Nc3ncc(-c4ccc(F)cc4)s3)cc21` [Example 14, (2S,4S)-N-[2-[6-[[5-(4-fluorophenyl)thiazol-2-yl]amino]imidazo[4,5-c]pyridin-1-yl]ethyl]-4-hydroxy-1-prop-2-enoylpyrrolidine-2-carboxamide], the IC50 on KIT and at FLT3 was less than 1 nM in each case. In the experiment with MV4-11 (Homo sapiens), this molecule gave a GI50 of less than 10 nM.

On to `C=CC(=O)N1CC[C@H](O)[C@H]1C(=O)NCCn1cnc2cnc(Nc3ncc(-c4ncccc4F)s3)cc21` [Example 24, (2S,3S)-N-[2-[6-[[5-(3-fluoro-2-pyridyl)thiazol-2-yl]amino]imidazo[4,5-c]pyridin-1-yl]ethyl]-3-hydroxy-1-prop-2-enoyl-pyrrolidine-2-carboxamide], for which the IC50 at KIT and on FLT3 was less than 1 nM throughout. The same molecule registered a GI50 in the experiment with MV4-11 (Homo sapiens) of 10 to 100 nM.

Regarding `C=CC(=O)N1CC[C@H](O)[C@H]1C(=O)NCCn1cnc2cnc(Nc3ncc(-c4ccc(F)cc4)s3)cc21` [Example 15, (2S,3S)-N-[2-[6-[[5-(4-fluorophenyl)thiazol-2-yl]amino]imidazo[4,5-c]72yridine-1-yl]ethyl]-3-hydroxy-1-prop-2-enoylpyrrolidine-2-carboxamide], the IC50 on KIT and on FLT3 was less than 1 nM in each case. Also, the GI50 with MV4-11 (Homo sapiens) was less than 10 nM.
